The target of assay [1] is Acetylcholinesterase (Homo sapiens) (UniProt P22303). Kind of assay: Inhibition of AChE (unknown origin) at 100 ug/ml for 15 mins by spectrophotometry.
In another assay the test system is Bacillus subtilis. Nature of the assay: Antibacterial activity against Bacillus subtilis ATCC 6633 after 24 hrs. The class given is functional. Particulars: ATCC 6633, 24 h.
For the next assay, the system named is A498. Nature of the assay: Cytotoxicity against human A498 cells. The class given is functional, cell-based.
The next assay relates to ACHN. Nature of the assay: Cytotoxicity against human ACHN cells. The format is functional, cell-based.
For assay [2], the system named is Staphylococcus epidermidis. Kind of assay: Antibacterial activity against Staphylococcus epidermidis ATCC 12228 after 24 hrs. The format is functional. Particulars: ATCC 12228, 24 h.

In brackets after ≈: the same amount, converted by molar mass. Activity calls are given as the source filed them. No cut-off for these calls is given here.

Chain of Acetylcholinesterase (Homo sapiens) (P22303 whole entry): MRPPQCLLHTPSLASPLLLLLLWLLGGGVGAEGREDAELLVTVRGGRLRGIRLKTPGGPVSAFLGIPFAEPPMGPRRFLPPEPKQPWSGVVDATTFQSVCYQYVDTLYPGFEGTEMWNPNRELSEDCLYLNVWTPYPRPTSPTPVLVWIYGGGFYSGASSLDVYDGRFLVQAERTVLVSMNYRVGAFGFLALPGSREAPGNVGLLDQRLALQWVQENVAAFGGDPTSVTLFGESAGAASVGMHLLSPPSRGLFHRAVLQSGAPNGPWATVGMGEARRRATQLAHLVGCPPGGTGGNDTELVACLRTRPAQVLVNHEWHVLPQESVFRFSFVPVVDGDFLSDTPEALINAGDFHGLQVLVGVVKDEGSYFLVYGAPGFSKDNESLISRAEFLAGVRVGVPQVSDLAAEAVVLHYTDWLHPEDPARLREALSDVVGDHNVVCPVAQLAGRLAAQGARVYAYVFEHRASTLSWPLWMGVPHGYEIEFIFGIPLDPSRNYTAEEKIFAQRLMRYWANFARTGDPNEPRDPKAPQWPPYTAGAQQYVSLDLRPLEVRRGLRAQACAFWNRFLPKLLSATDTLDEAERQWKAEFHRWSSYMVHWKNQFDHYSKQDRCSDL

For orientation: MIC means the least concentration at which growth counts as inhibited. Lower therefore signals inhibition by little substance. Regarding `CCC(C)CCCCCCC(=O)c1nc[nH]c1N` (centres undefined), the inhibition entry in assay [1] is “Active”. This compound also displayed an MIC with Bacillus subtilis of 64 µg/mL (≈ 255 µM). The result in the assay with A498 and in the assay on ACHN was inactive.

Turning to `CC(C)CCCCCCC(=O)c1nc[nH]c1N`, the inhibition entry in assay [1] is “Active”. Further, the MIC (with Bacillus subtilis; in assay [2]) was 64 µg/mL (≈ 270 µM) throughout. The outcome with A498 and with ACHN was inactive.

The record behind these values is ChEMBL document CHEMBL3739378, “Nocarimidazoles A and B from a Marine-Derived Actinomycete of the Genus Nocardiopsis” (2015).
